# According to patent US8697840B2, “Peptide inhibition of lung epithelial apoptosis and pulmonary fibrosis” (Board of Regents, The University of Texas System, priority 2008, dated 2014):
# Experiments:
# PAI-1 [1] = assay: Western blot of BAL fluid and lung homogenates of bleo-treated mice: PAI-1; assay type: in vivo, mouse; conditions: 40 μg bleomycin intranasally, day 7; for PAI-1 expression in lung homogenates: 10 mM peptide i.p. by 0.1 ml osmotic pump after 24 h
# Procedure: (§1) Mice were treated intranasally with 50 μl saline (SAL; control) or an equal volume of a 40 μg bleomycin solution (Bleo). After 24 h, 10 mM PP-1 (“Bleo+PP-1”) or control peptide (Bleo+CP-1) were given intraperitoneally using a 0.1 ml osmotic pump. Lungs were excised on day 7, bronchoalveolar lavage (BAL) fluid (“B”), lung homogenates (“H”) and membrane proteins (uPAR) were analyzed by Western blotting using antibodies specific for the murine proteins. (The same blot (“H”) was then stripped and analyzed for β-actin confirm equivalent loading of the lanes)
# (§2) Mice were treated intranasally with 50 μl saline or an equal volume of a 40 μg bleomycin solution. After 24 h, 10 mM PP-1 or the same concentration of control peptide CP-1 were given intraperitoneally using a 0.1 ml osmotic pump. Lungs were excised on day 7.
# Lung tissue was chopped into small pieces with fine scissors and rinsed 3× with PBS. The tissues were then homogenized in 1 ml of extraction buffer (25 mM Tris-HCl, pH 7.9. 0.5 mM EDTA and 0.1 mM PMSF) and the homogenate was centrifuged at 12,000 g for 15 min at 4° C. The supernatant was removed and referred to as the crude extract. Protein content was measured using a BioRad protein assay kit. Cytosolic proteins were separated by SDS-PAGE and transferred to a nitrocellulose membrane which was blocked with 1% BSA in a wash buffer for 1 h at room temperature followed by overnight incubation with antibodies specific for uPA, PAI-1 or p53 in the same buffer at 4° C. Protein was detected by enhanced chemiluminescence (ECL). Membranes were stripped and immunoblotted for β-actin.
# Mice were treated intranasally with saline (controls) are indicated (SAL). Mice receiving an equal volume of a 40 μg bleomycin solution are indicated (Bleo). Mice given PP-1 are indicated (PP-1) and those given control peptide are indicated (CP-1). BAL fluid is indicated (B), and lung homogenates (H) and membrane proteins (uPAR). Blots were probed with antibodies specific for the relevant murine proteins. (The same blot (H) was later stripped and analyzed for β-actin confirm equivalent loading of the lanes)
# uPA = assay: Western blot of lungs of bleo-treated mice: uPA; assay type: in vivo, mouse; conditions: 40 μg bleomycin intranasally, 10 mM peptide i.p. by 0.1 ml osmotic pump after 24 h, day 7
# Procedure: as §1, §2
# (§3) Lung tissue was chopped into small pieces with fine scissors and rinsed 3× with PBS. The tissues were then homogenized in 1 ml of extraction buffer (25 mM Tris-HCl, pH 7.9. 0.5 mM EDTA and 0.1 mM PMSF) and the homogenate was centrifuged at 12,000 g for 15 min at 4° C. […] Protein content was measured using a BioRad protein assay kit. […] Protein was detected by enhanced chemiluminescence (ECL). […]
# (§4) Mice were treated intranasally with saline (controls) are indicated (SAL). […] (The same blot (H) was later stripped and analyzed for β-actin confirm equivalent loading of the lanes)
# cleaved PARP = assay: IHC of lung sections of bleo-treated mice: cleaved PARP; assay type: in vivo, mouse; conditions: peptide 4.5 μM i.p. days 1 and 2, bleomycin 40 μg/50 μl intranasal day 2; up to 72 h
# Procedure: On day 2 mice were treated with bleomycin (40 μg/50μl) by intranasal instillation. Mice were sacrificed 24, 48 and 72 h after later, lungs were excised, inflated and fixed in formalin, and […] sections were analyzed by immunohistochemistry (IHC) using an antibody specific for cleaved PARP.
# (§5) For immunohistochemical (IHC) analysis, lungs were inflated at constant pressure of 20 cm H2O, removed and fixed overnight in 2% paraformaldehyde in PBS. Tissue was dehydrated by passage through a standard alcohol series and was embedded in paraffin. 5 μm sections were deparaffinized with xylene followed by incubation with 100% and 95% alcohol. After 10 min of antigen retrieval, the slides were incubated with H2O2 for 30 min to quench endogenous peroxidase. Slides were incubated overnight with the respective antibodies in PBS containing 0.1% Tween 20 and further processed using Lab vision kit (Freemont Calif.).
# p53 = assay: Western blot of lung homogenates of bleo-treated mice: p53; assay type: in vivo, mouse; conditions: 40 μg bleomycin intranasally, 10 mM peptide i.p. by 0.1 ml osmotic pump after 24 h, day 7
# Procedure: as §1, §2, §3, §4
# [2] = test system: bleo-induced lung injury in the mouse; assay: Lung hydroxyproline (collagen deposition) after bleo-induced lung injury; assay type: in vivo; conditions: for lung hydroxyproline levels: 50 μg Bleo intranasally, 10 mM peptide in 0.1 ml osmotic pump i.p. one day later, lungs after 21 days
# Procedure: FIGS. 10A and 10B are graphs showing the effect of PP-1 on fibrosis following bleo-induced lung injury in the mouse. […] 24 h after bleo, 0.1 ml osmotic pump filled with 10 mM PP-1 (designated “Bleo+PP” in Figures) or CP1 control scrambled peptide (“Bleo+CP1”) were implanted intraperitoneally. Lungs were harvested after 21 days, homogenized and the homogenates were subjected to the analysis of hydroxyproline or desmosine levels.
# Anesthetized mice received intranasal bleomycin HCl solution containing 40 μg/50μl in sterile saline solution. After 24 h, 7 days or 14 days 10 mM PP-1 (“Bleo+PP-1”) or control peptide (Bleo+CP-1) were given ip using a 0.1 ml osmotic pump. Mice were sacrificed and lungs excised 21 days later. Lung homogenates were analyzed for hydroxyproline. Results are expressed a % of control hydroxyproline concentration.
# Anesthetized mice received intranasal bleomycin HCl solution containing 40 μg/50 μl in sterile saline solution. After day 7, 10 mM peptide PP-2 (“Bleo+PP-2”) or control peptide (“Bleo+CP-2) were given intraperitoneally using a 0.1 ml osmotic pump. Lungs were excised after 21 days, lungs were homogenized and the homogenates were analyzed for hydroxyproline. Results are expressed a % of control hydroxyproline concentration.
# The hPro content of the whole mouse lungs tissues were measured using the technique of Woessner J F, 1961, Arch. Biochem. Biophys. 93:440-7). Lung tissue from each animal was homogenized in 1.0 ml of extraction buffer. One ml 12N HCl was added, and the samples were hydrolyzed at 110° C. for 24 h. After cooling, 5 μl of the samples were mixed with 5 μl of citrate-acetate buffer (5% citric acid, 1.2% glacial acetic acid, 7.25% sodium acetate and 3.4% sodium hydroxide) and 100 μl of chloramine-T solution (1.4% chloramine-T, 10% N-propanol, and 80% citrate acetate buffer) in 96 well plates. The mixture was incubated for 20 min at room temperature. A total of 100 μl of Ehrlich's solution (2.5 g p-dimethylaminobenzaldehyde added to 9.3 ml of n-propanol and 3.9 ml of 70% perchloric acid) was added to each well and the plates incubated at 65° C. for 18 min. The absorbance of each sample was measured at 550 nm. Standard curves were generated for each experiment using a known concentration of reagent hPro. Results were expressed as % changes in hPro content (with total hPro content of saline-treated control mouse lungs considered 100%).
# Lungs were harvested after 21 days, homogenized and the homogenates were subjected to the analysis of hydroxyproline as above (FIG. 10A) or desmosine (FIG. 10B). The effect of PP-1 on fibrosis in bleo-induced mouse lung injury was evaluated. Mice were treated with saline or 50 μg Bleo intranasally were implanted one day later with, 0.1 ml osmotic pumps i.p. The pumps were filled with either 10 mM (2.92 mg/100 μl) PP-1 (“Bleo+PP-1”) or control scrambled peptide CP-1 (“Bleo+CP-1”).
# PAI-1 [3] = assay: IHC of lung tissue of bleo-treated mice: PAI-1; assay type: in vivo, mouse; conditions: bleomycin-treated mice, 24-72 h
# Procedure: as §5
# An IHC study was conducted to analyze lung tissue for expression p53, uPA, uPAR, PAI-1 and cleaved caspase 3 (Table 2). […] These IHC observations were confirmed by Western blotting (see Example II and FIG. 5).
Substance,PAI-1 expression in lung homogenates (PAI-1 [1]),PAI-1 in BAL fluid (PAI-1 [1]),uPA levels in lung (uPA),cleavage (degradation) of PARP in lung (cleaved PARP),p53 expression in lung homogenates (p53),lung hydroxyproline levels [2],PAI-1 expression in lung tissue (IHC) (PAI-1 [3]),"bleomycin-induced collagen deposition (hydroxyproline, % of control) ([2]; bleomycin 40 μg/50 μl intranasal, 10 mM peptide i.p. osmotic pump after 24 h, 7 days or 14 days, lungs 21 days)"
Bleomycin,increased,increased,suppression,induced cleavage of PARP after 72 h of exposure,increased,significant increase in lung hydroxyproline or desmosine levels,PAI-1 expression was also increased in bleomycin-treated mice beginning 24 h after treatment,
"DGIWKASFTTFTVTKYWFYR [PP-1, residues 82-101 of human Cav-1, the caveolin-1 scaffolding domain]",inhibited the increased p53 and PAI-1 expression,,enhanced the suppressed uPA and uPAR levels,reversed such PARP degradation,inhibited the increased p53 and PAI-1 expression,"significantly reduced, to normal levels",reduced this PAI-1 expression,significantly inhibited bleomycin-induced collagen deposition and lung fibrosis
